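Compound exposure: 48 hours, 5 concentrations, 96-well plates. TGI marks complete inhibition of growth.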
Key:
Assay in all cases: DTP human tumour cell line panel, 48 h
HL-60(TB) leukemia = tested on: HL-60(TB) leukemia
M14 melanoma = tested on: M14 melanoma
SF-295 CNS = tested on: SF-295 CNS
SK-OV-3 ovarian = tested on: SK-OV-3 ovarian
U251 CNS = tested on: U251 CNS
786-0 renal = tested on: 786-0 renal
CAKI-1 renal = tested on: CAKI-1 renal
SK-MEL-2 melanoma = tested on: SK-MEL-2 melanoma
SNB-75 CNS = tested on: SNB-75 CNS
IGROV1 ovarian = tested on: IGROV1 ovarian
OVCAR-5 ovarian = tested on: OVCAR-5 ovarian
HOP-62 NSCLC = tested on: HOP-62 NSCLC
MDA-MB-231 breast = tested on: MDA-MB-231 breast
SF-268 CNS = tested on: SF-268 CNS
MOLT-4 leukemia = tested on: MOLT-4 leukemia
SF-539 CNS = tested on: SF-539 CNS
RPMI-8226 leukemia = tested on: RPMI-8226 leukemia
MCF7 breast = tested on: MCF7 breast
SR leukemia = tested on: SR leukemia
PC-3 prostate = tested on: PC-3 prostate
MDA-N = tested on: MDA-N
ACHN renal = tested on: ACHN renal
HS 578T breast = tested on: HS 578T breast
HCT-116 colon = tested on: HCT-116 colon
OVCAR-3 ovarian = tested on: OVCAR-3 ovarian
EKVX NSCLC = tested on: EKVX NSCLC
HCC-2998 colon = tested on: HCC-2998 colon
KM12 colon = tested on: KM12 colon
T-47D breast = tested on: T-47D breast
A498 renal = tested on: A498 renal
SW-620 colon = tested on: SW-620 colon
SN12C renal = tested on: SN12C renal
NCI-H460 lung = tested on: NCI-H460 lung
RXF 393 renal = tested on: RXF 393 renal
HCT-15 colon = tested on: HCT-15 colon
NCI-H23 lung = tested on: NCI-H23 lung
HOP-92 NSCLC = tested on: HOP-92 NSCLC
OVCAR-8 ovarian = tested on: OVCAR-8 ovarian
SNB-19 CNS = tested on: SNB-19 CNS
HT29 colon = tested on: HT29 colon
UO-31 renal = tested on: UO-31 renal
UACC-62 melanoma = tested on: UACC-62 melanoma
K-562 leukemia = tested on: K-562 leukemia
MALME-3M melanoma = tested on: MALME-3M melanoma
SK-MEL-5 melanoma = tested on: SK-MEL-5 melanoma
CCRF-CEM leukemia = tested on: CCRF-CEM leukemia
MDA-MB-435 = tested on: MDA-MB-435
NCI-H226 lung = tested on: NCI-H226 lung
DU-145 prostate = tested on: DU-145 prostate
NCI/ADR-RES ovarian = tested on: NCI/ADR-RES ovarian
COLO 205 colon = tested on: COLO 205 colon
UACC-257 melanoma = tested on: UACC-257 melanoma
NCI-H522 lung = tested on: NCI-H522 lung
SK-MEL-28 melanoma = tested on: SK-MEL-28 melanoma
LOX IMVI melanoma = tested on: LOX IMVI melanoma
A549 NSCLC = tested on: A549 NSCLC
OVCAR-4 ovarian = tested on: OVCAR-4 ovarian
TK-10 renal = tested on: TK-10 renal
BT-549 breast = tested on: BT-549 breast

Structure (SMILES): N#Cc1nc(-c2ccccc2C(=O)O)oc1N
- TGI (HL-60(TB) leukemia): > 100 µM
- TGI (M14 melanoma): > 100 µM
- TGI (SF-295 CNS): > 100 µM
- TGI (SK-OV-3 ovarian): > 100 µM
- TGI (U251 CNS): > 100 µM
- TGI (786-0 renal): > 100 µM
- TGI (CAKI-1 renal): > 100 µM
- TGI (SK-MEL-2 melanoma): > 100 µM
- TGI (SNB-75 CNS): > 100 µM
- TGI (IGROV1 ovarian): > 100 µM
- TGI (OVCAR-5 ovarian): > 100 µM
- TGI (HOP-62 NSCLC): > 100 µM
- TGI (MDA-MB-231 breast): > 100 µM
- TGI (SF-268 CNS): > 100 µM
- TGI (MOLT-4 leukemia): > 100 µM
- TGI (SF-539 CNS): > 100 µM
- TGI (RPMI-8226 leukemia): > 100 µM
- TGI (MCF7 breast): > 100 µM
- TGI (SR leukemia): > 100 µM
- TGI (PC-3 prostate): > 100 µM
- TGI (MDA-N): > 100 µM
- TGI (ACHN renal): > 100 µM
- TGI (HS 578T breast): > 100 µM
- TGI (HCT-116 colon): > 100 µM
- TGI (OVCAR-3 ovarian): > 100 µM
- TGI (EKVX NSCLC): > 100 µM
- TGI (HCC-2998 colon): > 100 µM
- TGI (KM12 colon): > 100 µM
- TGI (T-47D breast): > 100 µM
- TGI (A498 renal): > 100 µM
- TGI (SW-620 colon): > 100 µM
- TGI (SN12C renal): > 100 µM
- TGI (NCI-H460 lung): > 100 µM
- TGI (RXF 393 renal): > 100 µM
- TGI (HCT-15 colon): > 100 µM
- TGI (NCI-H23 lung): > 100 µM
- TGI (HOP-92 NSCLC): > 100 µM
- TGI (OVCAR-8 ovarian): > 100 µM
- TGI (SNB-19 CNS): > 100 µM
- TGI (HT29 colon): > 100 µM
- TGI (UO-31 renal): > 100 µM
- TGI (UACC-62 melanoma): > 100 µM
- TGI (K-562 leukemia): > 100 µM
- TGI (MALME-3M melanoma): > 100 µM
- TGI (SK-MEL-5 melanoma): > 100 µM
- TGI (CCRF-CEM leukemia): > 100 µM
- TGI (MDA-MB-435): > 100 µM
- TGI (NCI-H226 lung): > 100 µM
- TGI (DU-145 prostate): > 100 µM
- TGI (NCI/ADR-RES ovarian): > 100 µM
- TGI (COLO 205 colon): > 100 µM
- TGI (UACC-257 melanoma): > 100 µM
- TGI (NCI-H522 lung): > 100 µM
- TGI (SK-MEL-28 melanoma): > 100 µM
- TGI (LOX IMVI melanoma): > 100 µM
- TGI (A549 NSCLC): > 100 µM
- TGI (OVCAR-4 ovarian): > 100 µM
- TGI (TK-10 renal): > 100 µM

Structure (SMILES): Cc1nc2nn[nH]n2c(=O)c1CCO
- TGI (HL-60(TB) leukemia): > 100 µM
- TGI (M14 melanoma): > 100 µM
- TGI (SF-295 CNS): > 100 µM
- TGI (SK-OV-3 ovarian): > 100 µM
- TGI (U251 CNS): > 100 µM
- TGI (786-0 renal): > 100 µM
- TGI (CAKI-1 renal): > 100 µM
- TGI (SK-MEL-2 melanoma): > 100 µM
- TGI (SNB-75 CNS): 85.7 µM
- TGI (IGROV1 ovarian): > 100 µM
- TGI (OVCAR-5 ovarian): > 100 µM
- TGI (HOP-62 NSCLC): > 100 µM
- TGI (MDA-MB-231 breast): > 100 µM
- TGI (SF-268 CNS): > 100 µM
- TGI (MOLT-4 leukemia): > 100 µM
- TGI (SF-539 CNS): > 100 µM
- TGI (RPMI-8226 leukemia): > 100 µM
- TGI (MCF7 breast): > 100 µM
- TGI (SR leukemia): > 100 µM
- TGI (PC-3 prostate): > 100 µM
- TGI (MDA-N): > 100 µM
- TGI (ACHN renal): > 100 µM
- TGI (HS 578T breast): > 100 µM
- TGI (HCT-116 colon): > 100 µM
- TGI (OVCAR-3 ovarian): > 100 µM
- TGI (EKVX NSCLC): > 100 µM
- TGI (HCC-2998 colon): > 100 µM
- TGI (KM12 colon): > 100 µM
- TGI (T-47D breast): > 100 µM
- TGI (A498 renal): > 100 µM
- TGI (SW-620 colon): > 100 µM
- TGI (SN12C renal): > 100 µM
- TGI (NCI-H460 lung): > 100 µM
- TGI (RXF 393 renal): > 100 µM
- TGI (HCT-15 colon): > 100 µM
- TGI (NCI-H23 lung): > 100 µM
- TGI (HOP-92 NSCLC): > 100 µM
- TGI (OVCAR-8 ovarian): > 100 µM
- TGI (SNB-19 CNS): > 100 µM
- TGI (HT29 colon): > 100 µM
- TGI (UO-31 renal): > 100 µM
- TGI (UACC-62 melanoma): > 100 µM
- TGI (K-562 leukemia): > 100 µM
- TGI (MALME-3M melanoma): > 100 µM
- TGI (SK-MEL-5 melanoma): > 100 µM
- TGI (CCRF-CEM leukemia): > 100 µM
- TGI (MDA-MB-435): > 100 µM
- TGI (NCI-H226 lung): > 100 µM
- TGI (DU-145 prostate): > 100 µM
- TGI (NCI/ADR-RES ovarian): > 100 µM
- TGI (COLO 205 colon): > 100 µM
- TGI (UACC-257 melanoma): > 100 µM
- TGI (NCI-H522 lung): > 100 µM
- TGI (SK-MEL-28 melanoma): > 100 µM
- TGI (LOX IMVI melanoma): > 100 µM
- TGI (A549 NSCLC): > 100 µM
- TGI (OVCAR-4 ovarian): > 100 µM
- TGI (TK-10 renal): > 100 µM

Structure (SMILES): CCOC(=O)Nn1cnnc1C
- TGI (M14 melanoma): > 100 µM
- TGI (SF-295 CNS): > 100 µM
- TGI (SK-OV-3 ovarian): > 100 µM
- TGI (U251 CNS): > 100 µM
- TGI (786-0 renal): > 100 µM
- TGI (CAKI-1 renal): > 100 µM
- TGI (SK-MEL-2 melanoma): > 100 µM
- TGI (IGROV1 ovarian): > 100 µM
- TGI (OVCAR-5 ovarian): > 100 µM
- TGI (HOP-62 NSCLC): > 100 µM
- TGI (MDA-MB-231 breast): > 100 µM
- TGI (MOLT-4 leukemia): > 100 µM
- TGI (SF-539 CNS): > 100 µM
- TGI (RPMI-8226 leukemia): > 100 µM
- TGI (MCF7 breast): > 100 µM
- TGI (SR leukemia): > 100 µM
- TGI (PC-3 prostate): > 100 µM
- TGI (MDA-N): > 100 µM
- TGI (ACHN renal): > 100 µM
- TGI (HCT-116 colon): > 100 µM
- TGI (OVCAR-3 ovarian): > 100 µM
- TGI (EKVX NSCLC): > 100 µM
- TGI (HCC-2998 colon): > 100 µM
- TGI (KM12 colon): > 100 µM
- TGI (T-47D breast): > 100 µM
- TGI (A498 renal): > 100 µM
- TGI (SW-620 colon): > 100 µM
- TGI (SN12C renal): > 100 µM
- TGI (NCI-H460 lung): > 100 µM
- TGI (RXF 393 renal): > 100 µM
- TGI (HCT-15 colon): > 100 µM
- TGI (NCI-H23 lung): > 100 µM
- TGI (HOP-92 NSCLC): > 100 µM
- TGI (OVCAR-8 ovarian): > 100 µM
- TGI (SNB-19 CNS): > 100 µM
- TGI (HT29 colon): > 100 µM
- TGI (UO-31 renal): > 100 µM
- TGI (UACC-62 melanoma): > 100 µM
- TGI (K-562 leukemia): > 100 µM
- TGI (MALME-3M melanoma): > 100 µM
- TGI (SK-MEL-5 melanoma): > 100 µM
- TGI (CCRF-CEM leukemia): > 100 µM
- TGI (MDA-MB-435): > 100 µM
- TGI (NCI-H226 lung): > 100 µM
- TGI (NCI/ADR-RES ovarian): > 100 µM
- TGI (COLO 205 colon): > 100 µM
- TGI (UACC-257 melanoma): > 100 µM
- TGI (NCI-H522 lung): > 100 µM
- TGI (BT-549 breast): > 100 µM
- TGI (LOX IMVI melanoma): > 100 µM
- TGI (A549 NSCLC): > 100 µM
- TGI (OVCAR-4 ovarian): > 100 µM
- TGI (TK-10 renal): > 100 µM
